Like-named read-outs stand apart in the source and are kept apart here.
Columns and labels:
HCV genotype 1b replicon = test: HCV replicon assay, genotype 1b replicon EC50; format: cell-based, Hepatitis C virus; conditions: genotype 1b replicon, read-out: EC50 [gt-1b]
Method in brief: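 Stable neomycin-selected genotype 1b replicon cells, some carrying luciferase:Neo^r fusion, plated without G418 with a compound dilution series and incubated 24-48 h. Read-out was RNA (^32P-probe protection or TaqMan, normalized to cyclophilin A) or luciferase activity. EC50 from four-parameter fit as percent of DMSO control.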

[1] = target: HCV NS3/4A protease genotype 1b (Hepatitis C virus genotype 1b, UniProt P26663); test: HCV NS3/4A protease time-resolved fluorescence (TRF) assay, Ki against genotype 1b; format: biochemical; conditions: IC50 [gt-1b] (nM), NS3/4A genotype 1b, enzyme 0.2 nM
Method in brief: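 Enzyme 0.2 nM 1b / 0.4 nM A156T / 0.025 nM 3a; 30 min preinc. w/ cpd; 25 nM TRF peptide; 2.5 h RT; ex 340/em 615 time-delayed; 4-param IC50 → Ki = IC50/(1+[S]/KM).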

## Cc1nc2ccccc2c2c1O[C@@]1(C[C@H]3C(=O)N[C@]4(C(=O)NS(=O)(=O)C5(C)CC5)C[C@H]4/C=C\CCCCC[C@H](NC(=O)OC4CC(F)(F)C4(F)F)C(=O)N3C1)CC2(F)F (stereo partly drawn) [Example 112, 2,2,3,3-tetrafluorocyclobutyl [(2S,6S,12Z,13aS,14aR,16aS)-1′,1′-difluoro-5′-methyl-14a-{[(1-methylcyclopropyl)sulfonyl]carbamoyl}-5,16-dioxo-1,1′,2′,5,6,7,8,9,10,11,13a,14,14a,15,16,16a-hexadecahydrospiro[cyclopropa[e]pyrrolo[1,2-a][1,4]diazacyclopentadecine-2,3′-pyrano[2,3-c]quinolin]-6-yl]carbamate]
HCV genotype 1b replicon; Hepatitis C virus
  EC50: 32000 pM
[1]
  IC50: 0.226 nM

## Cc1nc2c(C(F)(F)F)cccc2c2c1O[C@]1(CC2)C[C@H]2C(=O)N[C@]3(C(=O)NS(=O)(=O)C4(C)CC4)C[C@H]3/C=C\CCCCC[C@H](NC(=O)OCC(C)C)C(=O)N2C1 [Example 113, 2-methylpropyl [(2R,6S,12Z,13aS,14aR,16aS)-5′-methyl-14a-{[(1-methylcyclopropyl)sulfonyl]carbamoyl}-5,16-dioxo-7′-(trifluoromethyl)-1,1′,2′,5,6,7,8,9,10,11,13a,14,14a,15,16,16a-hexadecahydrospiro[cyclopropa[e]pyrrolo[1,2-a][1,4]diazacyclopentadecine-2,3′-pyrano[2,3-c]quinolin]-6-yl]carbamate]
HCV genotype 1b replicon; Hepatitis C virus
  EC50: 3950 pM
[1]
  IC50: 0.298 nM

## Cc1nc2c(C(F)(F)F)cccc2c2c1O[C@]1(CC2)C[C@H]2C(=O)N[C@]3(C(=O)NS(=O)(=O)C4(C)CC4)C[C@H]3/C=C\CCCCC[C@H](NC(=O)OC(C)C)C(=O)N2C1 [Example 114, propan-2-yl [(2R,6S,12Z,13aS,14aR,16aS)-5′-methyl-14a-{[(1-methylcyclopropyl)sulfonyl]carbamoyl}-5,16-dioxo-7′-(trifluoromethyl)-1,1′,2′,5,6,7,8,9,10,11,13a,14,14a,15,16,16a-hexadecahydrospiro[cyclopropa[e]pyrrolo[1,2-a][1,4]diazacyclopentadecine-2,3′-pyrano[2,3-c]quinolin]-6-yl]carbamate]
HCV genotype 1b replicon; Hepatitis C virus
  EC50: 3530 pM
[1]
  IC50: 0.308 nM

## CCOC(=O)N[C@H]1CCCCC/C=C\[C@@H]2C[C@@]2(C(=O)NS(=O)(=O)C2(C)CC2)NC(=O)[C@@H]2C[C@]3(CCc4c(c(C)nc5ccccc45)O3)CN2C1=O [Example 115, ethyl [(2R,6S,12Z,13aS,14aR,16aS)-5′-methyl-14a-{[(1-methylcyclopropyl)sulfonyl]carbamoyl}-5,16-dioxo-1,1′,2′,5,6,7,8,9,10,11,13a,14,14a,15,16,16a-hexadecahydrospiro[cyclopropa[e]pyrrolo[1,2-a][1,4]diazacyclopentadecine-2,3′-pyrano[2,3-c]quinolin]-6-yl]carbamate]
HCV genotype 1b replicon; Hepatitis C virus
  EC50: 6860 pM
[1]
  IC50: 0.017 nM

## Cc1nc2ccccc2c2c1O[C@]1(CC2)C[C@H]2C(=O)N[C@]3(C(=O)NS(=O)(=O)C4(C)CC4)C[C@H]3/C=C\CCCCC[C@H](NC(=O)OC3(C(C)C)CC3)C(=O)N2C1 [Example 116, 1-(propan-2-yl)cyclopropyl [(2R,6S,12Z,13aS,14aR,16aS)-5′-methyl-14a-{[(1-methylcyclopropyl)sulfonyl]carbamoyl}-5,16-dioxo-1,1′,2′,5,6,7,8,9,10,11,13a,14,14a,15,16,16a-hexadecahydrospiro[cyclopropa[e]pyrrolo[1,2-a][1,4]diazacyclopentadecine-2,3′-pyrano[2,3-c]quinolin]-6-yl]carbamate]
HCV genotype 1b replicon; Hepatitis C virus
  EC50: 312 pM
[1]
  IC50: 0.008 nM

## Cc1nc2ccccc2c2c1O[C@]1(CC2O)C[C@H]2C(=O)N[C@]3(C(=O)NS(=O)(=O)C4(C)CC4)C[C@H]3/C=C\CCCCC[C@H](NC(=O)OC(C)(C)C)C(=O)N2C1 (stereo partly drawn) [Example 118, tert-butyl [(2S,6S,12Z,13aS,14aR,16aS)-1′-hydroxy-5′-methyl-14a-{[(1-methylcyclopropyl)sulfonyl]carbamoyl}-5,16-dioxo-1,1′,2′,5,6,7,8,9,10,11,13a,14,14a,15,16,16a-hexadecahydrospiro[cyclopropa[e]pyrrolo[1,2-a][1,4]diazacyclopentadecine-2,3′-pyrano[2,3-c]quinolin]-6-yl]carbamate]
HCV genotype 1b replicon
  EC50: 47300 pM
[1]
  IC50: 0.027 nM

## Cc1nc2ccccc2c2c1O[C@]1(CC2O)C[C@H]2C(=O)N[C@]3(C(=O)NS(=O)(=O)C4(C)CC4)C[C@H]3/C=C\CCCCC[C@H](NC(=O)OC(C)C)C(=O)N2C1 (stereo partly drawn) [Example 119, propan-2-yl [(2S,6S,12Z,14aR,16aS)-1′-hydroxy-5′-methyl-14a-{[(1-methylcyclopropyl)sulfonyl]carbamoyl}-5,16-dioxo-1,1′,2′,5,6,7,8,9,10,11,13a,14,14a,15,16,16a-hexadecahydrospiro[cyclopropa[e]pyrrolo[1,2-a][1,4]diazacyclopentadecine-2,3′-pyrano[2,3-c]quinolin]-6-yl]carbamate]
HCV genotype 1b replicon; Hepatitis C virus
  EC50: ~78500 pM
[1]
  IC50: 0.031 nM

## Cc1nc2ccccc2c2c1O[C@]1(CC2O)C[C@H]2C(=O)N[C@]3(C(=O)NS(=O)(=O)C4(C)CC4)C[C@H]3/C=C\CCCCC[C@H](NC(=O)OC(C)(C)C)C(=O)N2C1 (stereo partly drawn) [Example 120, tert-butyl [(2S,6S,12Z,13aS,14aR,16aS)-1′-hydroxy-5′-methyl-14a-{[(1-methylcyclopropyl)sulfonyl]carbamoyl}-5,16-dioxo-1,1′,2′,5,6,7,8,9,10,11,13a,14,14a,15,16,16a-hexadecahydrospiro[cyclopropa[e]pyrrolo[1,2-a][1,4]diazacyclopentadecine-2,3′-pyrano[2,3-c]quinolin]-6-yl]carbamate]
HCV genotype 1b replicon
  EC50: 19000 pM
[1]
  IC50: 0.032 nM

## Cc1nc2ccccc2c2c1O[C@]1(CC2)C[C@H]2C(=O)N[C@]3(C(=O)NS(=O)(=O)C4(C)CC4)C[C@H]3/C=C\CCCCC[C@H](NC(=O)OCC(F)F)C(=O)N2C1 [Example 121, 2,2-difluoroethyl [(2R,6S,12Z,13aS,14aR,16aS)-5′-methyl-14a-{[(1-methylcyclopropyl)sulfonyl]carbamoyl}-5,16-dioxo-1,1′,2′,5,6,7,8,9,10,11,13a,14,14a,15,16,16a-hexadecahydrospiro[cyclopropa[e]pyrrolo[1,2-a][1,4]diazacyclopentadecine-2,3′-pyrano[2,3-c]quinolin]-6-yl]carbamate]
HCV genotype 1b replicon; Hepatitis C virus
  EC50: 6460 pM
[1]
  IC50: 0.025 nM

## Cc1nc2ccc(OC(F)(F)F)cc2c2c1O[C@]1(CC2)C[C@H]2C(=O)N[C@]3(C(=O)NS(=O)(=O)C4(C)CC4)C[C@H]3/C=C\CCCCC[C@H](NC(=O)OC3(C)CC3)C(=O)N2C1 [Example 122, 1-methylcyclopropyl [(2R,6S,12Z,13aS,14aR,16aS)-5′-methyl-14a-{[(1-methylcyclopropyl)sulfonyl]carbamoyl}-5,16-dioxo-9′-(trifluoromethoxy)-1,1′,2′,5,6,7,8,9,10,11,13a,14,14a,15,16,16a-hexadecahydrospiro[cyclopropa[e]pyrrolo[1,2-a][1,4]diazacyclopentadecine-2,3′-pyrano[2,3-c]quinolin]-6-yl]carbamate]
HCV genotype 1b replicon; Hepatitis C virus
  EC50: 1980 pM
[1]
  IC50: 0.019 nM

## Cc1nc2ccc(OC(F)(F)F)cc2c2c1O[C@]1(CC2)C[C@H]2C(=O)N[C@]3(C(=O)NS(=O)(=O)C4(C)CC4)C[C@H]3/C=C\CCCCC[C@H](NC(=O)OC(C)C)C(=O)N2C1 [Example 123, propan-2-yl [(2R,6S,12Z,13aS,14aR,16aS)-5′-methyl-14a-{[(1-methylcyclopropyl)sulfonyl]carbamoyl}-5,16-dioxo-9′-(trifluoromethoxy)-1,1′,2′,5,6,7,8,9,10,11,13a,14,14a,15,16,16a-hexadecahydrospiro[cyclopropa[e]pyrrolo[1,2-a][1,4]diazacyclopentadecine-2,3′-pyrano[2,3-c]quinolin]-6-yl]carbamate]
HCV genotype 1b replicon; Hepatitis C virus
  EC50: 2070 pM
[1]
  IC50: 0.017 nM

## Cc1nc2ccc(OC(F)(F)F)cc2c2c1O[C@]1(CC2)C[C@H]2C(=O)N[C@]3(C(=O)NS(=O)(=O)C4(C)CC4)C[C@H]3/C=C\CCCCC[C@H](NC(=O)OCC(C)C)C(=O)N2C1 [Example 124, 2-methylpropyl [(2R,6S,12Z,13aS,14aR,16aS)-5′-methyl-14a-{[(1-methylcyclopropyl)sulfonyl]carbamoyl}-5,16-dioxo-9′-(trifluoromethoxy)-1,1′,2′,5,6,7,8,9,10,11,13a,14,14a,15,16,16a-hexadecahydrospiro[cyclopropa[e]pyrrolo[1,2-a][1,4]diazacyclopentadecine-2,3′-pyrano[2,3-c]quinolin]-6-yl]carbamate]
HCV genotype 1b replicon; Hepatitis C virus
  EC50: 2490 pM
[1]
  IC50: 0.016 nM

## Cc1nc2ccc(OC(F)(F)F)cc2c2c1O[C@]1(CC2)C[C@H]2C(=O)N[C@]3(C(=O)NS(=O)(=O)C4(C)CC4)C[C@H]3/C=C\CCCCC[C@H](NC(=O)OC3CCCC3)C(=O)N2C1 [Example 125, cyclopentyl [(2R,6S,12Z,13aS,14aR,16a5)-5′-methyl-14a-{[(1-methylcyclopropyl)sulfonyl]carbamoyl}-5,16-dioxo-9′-(trifluoromethoxy)-1,1′,2′,5,6,7,8,9,10,11,13a,14,14a,15,16,16a-hexadecahydrospiro[cyclopropa[e]pyrrolo[1,2-a][1,4]diazacyclopentadecine-2,3′-pyrano[2,3-c]quinolin]-6-yl]carbamate]
HCV genotype 1b replicon; Hepatitis C virus
  EC50: 3710 pM
[1]
  IC50: 0.016 nM

— US8987195B2 (priority 2012, dated 2015)
